Measurements reported in ChEMBL document CHEMBL3044624, “Cycloate, an inhibitor of fatty acid elongase, modulates the metabolism of very-long-side-chain alkylresorcinols in rye seedlings” (Pest Manag Sci, 2009).

How the values were obtained:
[1] = system: Secale cereale; assay: Change in alkylresorcinol homologue composition in dry shoots of green Secale cereale (rye) seedlings grown from compound-treated seeds at 15 +/-2 degC assessed as C21:0 content at 46 uM by GC/EI-MS analysis (reference value: 0.41 mg/kg dry weight); format: functional
[2] = system: Secale cereale; assay: Change in alkylresorcinol homologue composition in dry shoots of green Secale cereale (rye) seedlings grown from compound-treated seeds at 29 +/-2 degC assessed as C17:0 content at 46 uM by GC/EI-MS analysis (reference value: 0.75 mg/kg dry weight); format: functional
[3] = system: Secale cereale; assay: Change in alkylresorcinol homologue composition in dry shoots of etiolated Secale cereale (rye) seedlings grown from compound-treated seeds at 29 +/-2 degC assessed as C21:1 content at 46 uM by GC/EI-MS analysis (reference value: 0.04 mg/kg dry weight); format: functional
[4] = system: Secale cereale; assay: Toxicity against green Secale cereale (rye) seedlings assessed as dry biomass of seedling grown at 22 +/-2 degC at 46 uM measured at 5 days after compound-treated seed germination (reference value: 3.28 +/-0.02 g); format: organism-based; details: in vivo, 120 h
[5] = system: Secale cereale; assay: Change in alkylresorcinol homologue composition in dry shoots of etiolated Secale cereale (rye) seedlings grown from compound-treated seeds at 22 +/-2 degC assessed as C17:1 content at 46 uM by GC/EI-MS analysis (reference value: 0.11 mg/kg dry weight); format: functional
[6] = system: Secale cereale; assay: Change in alkylresorcinol homologue composition in dry shoots of etiolated Secale cereale (rye) seedlings grown from compound-treated seeds at 29 +/-2 degC assessed as C23:1 content at 46 uM by GC/EI-MS analysis; format: functional
[7] = system: Secale cereale; assay: Change in alkylresorcinol homologue composition in dry shoots of etiolated Secale cereale (rye) seedlings grown from compound-treated seeds at 22 +/-2 degC assessed as C21:1 content at 46 uM by GC/EI-MS analysis (reference value: 0.12 mg/kg dry weight); format: functional
[8] = system: Secale cereale; assay: Toxicity against etiolated Secale cereale (rye) seedlings assessed as fresh biomass of seedling grown at 22 +/-2 degC at 46 uM measured at 5 days after compound-treated seed germination (reference value: 21.43 +/-0.35 g); format: organism-based; details: in vivo, 120 h
[9] = system: Secale cereale; assay: Toxicity against etiolated Secale cereale (rye) seedlings assessed as dry biomass of seedling grown at 15 +/-2 degC at 46 uM measured at 5 days after compound-treated seed germination (reference value: 1.14 +/-0.01 g); format: organism-based; details: in vivo, 120 h
[10] = system: Secale cereale; assay: Change in alkylresorcinol homologue composition in dry shoots of etiolated Secale cereale (rye) seedlings grown from compound-treated seeds at 15 +/-2 degC assessed as C17:1 content at 46 uM by GC/EI-MS analysis (reference value: 0.51 mg/kg dry weight); format: functional
[11] = system: Secale cereale; assay: Change in alkylresorcinol content in dry shoots of green Secale cereale (rye) seedlings grown from compound-treated seeds at 22 +/-2 degC at 46 uM by thin layer chromatography (reference value: 3.13 +/-0.07 mg/kg dry weight); format: functional
[12] = system: Secale cereale; assay: Change in alkylresorcinol homologue composition in dry shoots of green Secale cereale (rye) seedlings grown from compound-treated seeds at 15 +/-2 degC assessed as C17:1 content at 46 uM by GC/EI-MS analysis (reference value: 0.17 mg/kg dry weight); format: functional
[13] = system: Secale cereale; assay: Change in alkylresorcinol homologue composition in dry shoots of green Secale cereale (rye) seedlings grown from compound-treated seeds at 22 +/-2 degC assessed as C15:0 content at 46 uM by GC/EI-MS analysis (reference value: 0.24 mg/kg dry weight); format: functional
[14] = system: Secale cereale; assay: Change in alkylresorcinol homologue composition in dry shoots of etiolated Secale cereale (rye) seedlings grown from compound-treated seeds at 29 +/-2 degC assessed as C25:0 content at 46 uM by GC/EI-MS analysis (reference value: 0.06 mg/kg dry weight); format: functional
[15] = system: Secale cereale; assay: Change in alkylresorcinol content in dry shoots of etiolated Secale cereale (rye) seedlings grown from compound-treated seeds at 15 +/-2 degC at 46 uM by thin layer chromatography (reference value: 8.13 +/-0.14 mg/kg dry weight); format: functional
[16] = system: Secale cereale; assay: Change in alkylresorcinol homologue composition in dry shoots of etiolated Secale cereale (rye) seedlings grown from compound-treated seeds at 29 +/-2 degC assessed as C21:0 content at 46 uM by GC/EI-MS analysis (reference value: 0.96 mg/kg dry weight); format: functional
[17] = system: Secale cereale; assay: Change in alkylresorcinol homologue composition in dry shoots of green Secale cereale (rye) seedlings grown from compound-treated seeds at 22 +/-2 degC assessed as C19:0 content at 46 uM by GC/EI-MS analysis (reference value: 0.56 mg/kg dry weight); format: functional
[18] = system: Secale cereale; assay: Change in alkylresorcinol homologue composition in dry shoots of green Secale cereale (rye) seedlings grown from compound-treated seeds at 29 +/-2 degC assessed as C21:0 content at 46 uM by GC/EI-MS analysis (reference value: 0.20 mg/kg dry weight); format: functional
[19] = system: Secale cereale; assay: Change in alkylresorcinol homologue composition in dry shoots of etiolated Secale cereale (rye) seedlings grown from compound-treated seeds at 22 +/-2 degC assessed as C15:0 content at 46 uM by GC/EI-MS analysis (reference value: 0.60 mg/kg dry weight); format: functional
[20] = system: Secale cereale; assay: Toxicity against etiolated Secale cereale (rye) seedlings assessed as fresh biomass of seedling grown at 29 +/-2 degC at 46 uM measured at 5 days after compound-treated seed germination (reference value: 16.03 +/-0.67 g); format: organism-based; details: in vivo, 120 h
[21] = system: Secale cereale; assay: Change in alkylresorcinol homologue composition in dry shoots of green Secale cereale (rye) seedlings grown from compound-treated seeds at 29 +/-2 degC assessed as C25:0 content at 46 uM by GC/EI-MS analysis (reference value: 0.03 mg/kg dry weight); format: functional
[22] = system: Secale cereale; assay: Change in alkylresorcinol homologue composition in dry shoots of green Secale cereale (rye) seedlings grown from compound-treated seeds at 15 +/-2 degC assessed as C15:0 content at 46 uM by GC/EI-MS analysis (reference value: 0.24 mg/kg dry weight); format: functional
[23] = system: Secale cereale; assay: Change in alkylresorcinol homologue composition in dry shoots of etiolated Secale cereale (rye) seedlings grown from compound-treated seeds at 22 +/-2 degC assessed as C19:0 content at 46 uM by GC/EI-MS analysis (reference value: 1.83 mg/kg dry weight); format: functional
[24] = system: Secale cereale; assay: Change in alkylresorcinol content in dry shoots of green Secale cereale (rye) seedlings grown from compound-treated seeds at 29 +/-2 degC at 46 uM by thin layer chromatography (reference value: 1.94 +/-0.02 mg/kg dry weight); format: functional
[25] = system: Secale cereale; assay: Change in alkylresorcinol homologue composition in dry shoots of green Secale cereale (rye) seedlings grown from compound-treated seeds at 15 +/-2 degC assessed as C19:0 content at 46 uM by GC/EI-MS analysis (reference value: 0.99 mg/kg dry weight); format: functional
[26] = system: Secale cereale; assay: Change in alkylresorcinol homologue composition in dry shoots of green Secale cereale (rye) seedlings grown from compound-treated seeds at 29 +/-2 degC assessed as C23:0 content at 46 uM by GC/EI-MS analysis (reference value: 0.08 mg/kg dry weight); format: functional

Compound `CCSC(=O)N(CC)C1CCCCC1` [CYCLOATE] has an Activity [1] of 0.55 mg/kg, an Activity [2] of 5.42 mg/kg and an Activity [3] of 0.33 mg/kg. For the same compound, the Activity [4] was 2.03 g, the Activity [5] was 0.11 mg/kg and the Activity [6] was 0.07 mg/kg. It also gave an Activity [7] of 0.11 mg/kg, an Activity [8] of 6.92 g and an Activity [9] of 0.92 g. For the same compound, the Activity [10] was 1.25 mg/kg, the Activity [11] was 3.17 mg/kg and the Activity [12] was 0.34 mg/kg. For the same compound, the Activity [13] was 0.2 mg/kg, the Activity [14] was 0.23 mg/kg and the Activity [15] was 13.11 mg/kg. The Activity [16] was 1.2 mg/kg, the Activity [17] was 0.87 mg/kg and the Activity [18] was 1.34 mg/kg. It also gave an Activity [19] of 0.1 mg/kg, an Activity [20] of 21 g and an Activity [21] of 0.2 mg/kg. The Activity [22] was 0.75 mg/kg, the Activity [23] was 0.7 mg/kg and the Activity [24] was 13.96 mg/kg. It also gave an Activity [25] of 1.45 mg/kg and an Activity [26] of 0.32 mg/kg.
